From patent US20100274050A1, “SOLID MILNACIPRAN AND PROCESS FOR THE PREPARATION OF THE SAME” (Glenmark Generics Limited, priority 2009, published 2010)
Where a name gives a salt, the structure may show the parent alone.

Test: Bulk density / tapped density (tapped density tester ETD-1020)
Type: physicochemical
Source text: The bulk density used tapped density tester dual-platform ETD-1020 (Electrolab). System specifications. Speed: nominal rate of 300 taps per minute, Accuracy: Actual setting ±1 tap, Drop height: 14±2 mm. Platform rotation: 5-15 rotations/minute.

For CCN(CC)C(=O)C1(c2ccccc2)CC1CN (stereo not shown) [milnacipran hydrochloride, Milnacipran hydrochloride], the Tapped density was “Tapped density = 0.43 g/ml”.
